Consider six substances from article PMC7486399 (Nature Communications, 2020).

Where “and” joins values, the source holds several entries; their conditions need not be identical. Equal values may be shown once. Bounds are passed on as bounds.

Test [1] concerns interaction between the S1 subunit and ACE2 receptor. Put plainly: AFM competition binding: ACE2-derived peptides vs S1 subunit-ACE2 binding on model surface. The note with it: for binding probability (BP) with peptide (Fig. 4b) / reduction in the BP (S1-ACE2 complex formation): 250 ms contact time; for binding probability (BP) with peptide (Fig. 4b): mean, N ≥ 3, 0 µM BP: 22-44 10.8724, 22-57 8.6263, 22-44-g-351-357 10.6771, 351-357 8.65885, PEG tip 2.60417; for delta binding (change of binding probability, Fig. 4c): vs 0 µM; for decrease in the BP on purified receptor: AFM on purified ACE2 receptor; for 50% inhibitory concentration (IC50): S1-ACE2 binding by AFM, estimated from 1, 10, 100 µM; for reduction in the BP (S1-ACE2 complex formation): concentration not printed in the sentence (tested 1, 10, 100 µM).

For test [2], the system named is mixed culture of A549 and A549-ACE2 cells. In kind it is cell-based, human. The note with it: AFM.
Test [3] relates to A549 cells. In kind it is cell-based, human.
Test [4] has as its system A549-ACE2 cells. In kind it is cell-based, human.
In test [5] the test system is A549 cells. Put plainly: AFM S1 binding probability on A549 cells before and after [22-57] peptide. In kind it is cell-based, human. The following applies: for BP (Fig. 5a), 100 μM peptide: A549 cells, 100 μM [22–57].
The test system of test [6] is A549-ACE2 cells. Put plainly: AFM S1 binding probability on A549-ACE2 cells before and after [22-57] peptide. In kind it is cell-based, human. The following applies: for BP (Fig. 5a), 100 μM peptide: 100 μM [22–57].
The mark [7] stands for this setting: 1 µM peptide, ddH2O control 27.2772.
Setting [8] is: 10 µM peptide, ddH2O control -35.4337.
The mark [9] stands for this setting: 100 µM peptide, ddH2O control -21.9737.

Take “[22–44]: ACE2-derived peptide fragment 22–44, N-terminal helix of ACE2 (sequence in Supplementary Fig. 9)”: the “binding probability (BP) with peptide (Fig. 4b)” value (“binding probability (BP)” below) in test [1] (1 µM peptide) amounted to 6.934; in test [1] (10 µM peptide), 4.232; in test [1] (100 µM peptide) it was 4.6224. In addition, the “delta binding (change of binding probability, Fig. 4c)” value is listed as -48.3738 in test [1] (setting [7]), -79.2642 in test [1] (setting [8]) and -75.9263 in test [1] (setting [9]). In addition, the “decrease in the BP on purified receptor” value in test [1] is more than 70%. Also, the “50% inhibitory concentration (IC50)” value in test [1] is listed as “in the µM range”. Moreover, the “reduction in the BP (S1-ACE2 complex formation)” value in test [1] was ~ 76%. Further, in test [2], the “decrease in the BP on living cells” value is more than 70%.

Consider “[351–357]: ACE2-derived peptide fragment 351–357, part of a hot binding spot (LGKGDFR; UniProt Q9BYF1 351-357, looked up, fragment)”, for which the “binding probability (BP)” value is listed as 5.599 in test [1] (1 µM peptide), 6.3151 in test [1] (10 µM peptide) and 5.339 in test [1] (100 µM peptide). In addition, the “delta binding (change of binding probability, Fig. 4c)” value in test [1] (setting [7]) is -43.4556; in test [1] (setting [8]), -34.8403; in test [1] (setting [9]) it was -54.9815.

As for 9-O-acetyl-2-α-O-propargyl-SC [SA], the “binding probability + SA (Fig. 3f)” value with A549 cells [3] is 4.4 and 4.6 and 7 and 7.2; with A549-ACE2 cells [4], 12.6 and 8.7 and 9 and 10.4. The “binding frequency after SA injection” value in the test on A549 cells [3] (A549 cells, 9-O-acetyl-sialogycans, 1 mM) is on record as ~ 7%; in the test on A549-ACE2 cells [4] ([…], 9-O-acetyl-sialogycans, 1 mM), “≈ 10%”.

“[22–44–g–351–357]: ACE2-derived fragments 22–44 and 351–357 joined by a glycine residue (EEQAKTFLDKFNHEAEDLFYQSSGLGKGDFR)”: the “binding probability (BP)” value in test [1] (1 µM peptide) amounted to 6.641; in test [1] (10 µM peptide), 4.915; in test [1] (100 µM peptide), 4.655. Moreover, the “delta binding (change of binding probability, Fig. 4c)” value was -45.2583 in test [1] (setting [7]), -63.4203 in test [1] (setting [8]) and -62.3402 in test [1] (setting [9]). Further, in test [1] (compared with the other peptides), the “binding inhibition, result in words” value is “we did not notice any strong improvement in the binding inhibition”.

For the substance “[22–57]: ACE2-derived peptide fragment 22–57, N-terminal helix of ACE2 (sequence in Supplementary Fig. 9)”, the “binding probability (BP)” value worked out at 6.706 in test [1] (1 µM peptide), 5.599 in test [1] (10 µM peptide) and 4.167 in test [1] (100 µM peptide). Further, the “delta binding (change of binding probability, Fig. 4c)” value was -31.3144 in test [1] (setting [7]), -50.4102 in test [1] (setting [8]) and -74.5041 in test [1] (setting [9]). The “decrease in the BP on purified receptor” value in test [1] is more than 70%. The “50% inhibitory concentration (IC50)” value in test [1] is “in the µM range”. Further, in test [1], the “reduction in the BP (S1-ACE2 complex formation)” value was ~ 74%. Besides, the “change of BP after peptide injection” value in the test on A549 cells [5] (A549 cells (both cell types), 100 µM peptide) is recorded as “significant decrease of the BP on both cell types”. For the same substance, the “BP (Fig. 5a), 100 μM peptide” value is 4.3 in the test on A549 cells [5] (replicate 1 (0 μM: 10.8)); 4.1 with A549 cells [5] (replicate 2 (0 μM: 9.7)); 1.9 in the test on A549 cells [5] (replicate 3 (0 μM: 7.7)); 9.7 in the test with A549-ACE2 cells [6] (replicate 1 (0 μM: 17)); 8.5 with A549-ACE2 cells [6] (replicate 2 (0 μM: 15.7)); 4.4 in the test with A549-ACE2 cells [6] (replicate 3 (0 μM: 29)). For the same substance, in the test with A549-ACE2 cells [6] (replicate 4 (0 μM: 15.9)), the “BP (Fig. 5a), 100 μM peptide” value is 10.1. In addition, the “BP level after peptide injection” value in the test with A549-ACE2 cells [6] (100 µM peptide) is “reaching a level close to the one of the control cells”. In test [2], the “decrease in the BP on living cells” value is more than 70%.

Regarding cRGD, the “binding probability + RGD (Fig. 3f)” value is 13.1 and 7.8 and 10.6 and 9.5 in the test on A549 cells [3] (S1 tip on A549 cells after cRGD, 500 μM, 37 °C, individual data points); 14.1 and 9.9 and 20.6 and 14.7 in the test with A549-ACE2 cells [4] (S1 tip on A549-ACE2 cells after cRGD, 500 μM, 37 °C, individual data points). The “reduction of the binding frequency after cRGD injection” value in the test with A549-ACE2 cells [4] (A549-ACE2 cells, cRGD 500 μM) was 1–2%.
